According to PubChem BioAssay (NCI):
Where “and” joins values, the source holds several entries; their conditions need not be identical. Equal entries are not always repeated.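 Five concentrations, 48 hours, 96-well plates. GI50: concentration for 50% inhibition of growth. The concentration for full growth arrest is given as TGI.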

Experiments:
Assay in all cases: NCI-60 cell line screen, 48 h
OVCAR-3 ovarian = test system: OVCAR-3 ovarian
SR leukemia = test system: SR leukemia
HT29 colon = test system: HT29 colon
MOLT-4 leukemia = test system: MOLT-4 leukemia
ACHN renal = test system: ACHN renal
HOP-62 NSCLC = test system: HOP-62 NSCLC
IGROV1 ovarian = test system: IGROV1 ovarian
OVCAR-8 ovarian = test system: OVCAR-8 ovarian
KM12 colon = test system: KM12 colon
RPMI-8226 leukemia = test system: RPMI-8226 leukemia
UACC-257 melanoma = test system: UACC-257 melanoma
A549 NSCLC = test system: A549 NSCLC
U251 CNS = test system: U251 CNS
UO-31 renal = test system: UO-31 renal
MCF7 breast = test system: MCF7 breast
M19-MEL melanoma = test system: M19-MEL melanoma
HCT-15 colon = test system: HCT-15 colon
SK-OV-3 ovarian = test system: SK-OV-3 ovarian
HOP-18 NSCLC = test system: HOP-18 NSCLC
HCT-116 colon = test system: HCT-116 colon
NCI/ADR-RES ovarian = test system: NCI/ADR-RES ovarian
DMS 273 small cell lung = test system: DMS 273 small cell lung
DLD-1 colon = test system: DLD-1 colon
A498 renal = test system: A498 renal
OVCAR-4 ovarian = test system: OVCAR-4 ovarian
HCC-2998 colon = test system: HCC-2998 colon
NCI-H23 lung = test system: NCI-H23 lung
BT-549 breast = test system: BT-549 breast
RXF-631 renal = test system: RXF-631 renal
786-0 renal = test system: 786-0 renal
NCI-H522 lung = test system: NCI-H522 lung
TK-10 renal = test system: TK-10 renal
SNB-78 CNS = test system: SNB-78 CNS
DMS 114 small cell lung = test system: DMS 114 small cell lung
CCRF-CEM leukemia = test system: CCRF-CEM leukemia
K-562 leukemia = test system: K-562 leukemia
HL-60(TB) leukemia = test system: HL-60(TB) leukemia
M14 melanoma = test system: M14 melanoma
PC-3 prostate = test system: PC-3 prostate
LOX IMVI melanoma = test system: LOX IMVI melanoma
SN12C renal = test system: SN12C renal
CAKI-1 renal = test system: CAKI-1 renal
LXFL 529 NSCLC = test system: LXFL 529 NSCLC
MDA-MB-435 = test system: MDA-MB-435
RXF 393 renal = test system: RXF 393 renal
SK-MEL-28 melanoma = test system: SK-MEL-28 melanoma
SF-539 CNS = test system: SF-539 CNS
SW-620 colon = test system: SW-620 colon
NCI-H460 lung = test system: NCI-H460 lung
HOP-92 NSCLC = test system: HOP-92 NSCLC
KM20L2 colon = test system: KM20L2 colon
MDA-MB-231 breast = test system: MDA-MB-231 breast
MDA-N = test system: MDA-N
EKVX NSCLC = test system: EKVX NSCLC

`CN1C(=O)CC2(C)c3cc(O)ccc3N(C)C12` (stereo not drawn) was tested, and the GI50 (OVCAR-3 ovarian) was 16.1 µM, the TGI (OVCAR-3 ovarian) was 32 µM and 30.9 µM and the GI50 (SR leukemia) was 13.9 µM. For the same compound, the TGI (SR leukemia) was 45.2 µM and 51.5 µM, the GI50 (HT29 colon) was 21.4 µM and the TGI (HT29 colon) was 64.5 µM and 51 µM. The TGI (MOLT-4 leukemia) was 44.7 µM and 40.1 µM, the GI50 (ACHN renal) was 25.6 µM and the TGI (ACHN renal) was 75 µM and > 100 µM. The TGI (HOP-62 NSCLC) was 60.7 µM, the TGI (IGROV1 ovarian) was 75 µM and 68.8 µM and the TGI (OVCAR-8 ovarian) was 61.4 µM. The GI50 (KM12 colon) was 42.6 µM, the TGI (KM12 colon) was 75 µM and 42.7 µM and the GI50 (RPMI-8226 leukemia) was 20.3 µM. For the same compound, the TGI (RPMI-8226 leukemia) was 64.8 µM and 67.3 µM, the TGI (UACC-257 melanoma) was over 85.9 µM and the TGI (A549 NSCLC) was 75 µM and > 100 µM. For the same compound, the GI50 (U251 CNS) was 14.4 µM, the TGI (U251 CNS) was 25 µM and 31.2 µM and the TGI (UO-31 renal) was over 90.9 µM. The GI50 (MCF7 breast) was 14 µM, the TGI (MCF7 breast) was 27.8 µM and 35.8 µM and the TGI (M19-MEL melanoma) was 46.2 µM. The GI50 (HCT-15 colon) was 14.3 µM, the TGI (HCT-15 colon) was 25.9 µM and 41.9 µM and the GI50 (SK-OV-3 ovarian) was over 75 µM. It also gave a TGI (SK-OV-3 ovarian) of over 100 µM, a TGI (HOP-18 NSCLC) of over 100 µM and a GI50 (HCT-116 colon) of 22.8 µM. For the same compound, the TGI (HCT-116 colon) was 51.8 µM and 42.1 µM, the GI50 (NCI/ADR-RES ovarian) was 17.2 µM and the TGI (NCI/ADR-RES ovarian) was 75 µM and 34.3 µM. It also gave a TGI (DMS 273 small cell lung) of over 100 µM, a TGI (DLD-1 colon) of over 100 µM and a GI50 (A498 renal) of over 75 µM. The TGI (A498 renal) was > 75 µM and 68.2 µM, the TGI (OVCAR-4 ovarian) was 10.6 µM and the GI50 (HCC-2998 colon) was over 75 µM. The TGI (HCC-2998 colon) was over 100 µM, the GI50 (NCI-H23 lung) was 25.7 µM and the TGI (NCI-H23 lung) was 75 µM and 61.9 µM. For the same compound, the GI50 (BT-549 breast) was 30.3 µM, the TGI (BT-549 breast) was 75 µM and 30.8 µM and the TGI (RXF-631 renal) was over 100 µM. The GI50 (786-0 renal) was 23.8 µM, the TGI (786-0 renal) was 58.1 µM and 28.6 µM and the GI50 (NCI-H522 lung) was 15.6 µM. For the same compound, the TGI (NCI-H522 lung) was 33.2 µM and 60 µM, the GI50 (TK-10 renal) was over 75 µM and the TGI (TK-10 renal) was over 100 µM. The TGI (SNB-78 CNS) was over 100 µM, the TGI (DMS 114 small cell lung) was over 100 µM and the GI50 (CCRF-CEM leukemia) was 9.66 µM. For the same compound, the TGI (CCRF-CEM leukemia) was 40.8 µM and 62.7 µM, the GI50 (K-562 leukemia) was 11.6 µM and the TGI (K-562 leukemia) was 31.3 µM and 70.8 µM. The GI50 (HL-60(TB) leukemia) was 14.2 µM, the TGI (HL-60(TB) leukemia) was 31.5 µM and 70 µM and the TGI (M14 melanoma) was 44.6 µM. For the same compound, the GI50 (PC-3 prostate) was over 75 µM, the TGI (PC-3 prostate) was over 100 µM and the GI50 (LOX IMVI melanoma) was 14.8 µM. The TGI (LOX IMVI melanoma) was 38.9 µM and 32.6 µM, the TGI (SN12C renal) was 29.6 µM and 23.3 µM and the GI50 (CAKI-1 renal) was 32.4 µM. For the same compound, the TGI (CAKI-1 renal) was 63.5 µM and > 100 µM, the TGI (LXFL 529 NSCLC) was over 59.2 µM and the GI50 (MDA-MB-435) was 9.51 µM. The TGI (MDA-MB-435) was 19.7 µM and 28.4 µM, the GI50 (RXF 393 renal) was 48.4 µM and the TGI (RXF 393 renal) was 75 µM and 66.5 µM. The GI50 (SK-MEL-28 melanoma) was 11.8 µM, the TGI (SK-MEL-28 melanoma) was 21.9 µM and > 79.2 µM and the GI50 (SF-539 CNS) was 14.5 µM. The TGI (SF-539 CNS) was 26.9 µM and > 76.5 µM, the GI50 (SW-620 colon) was 13.9 µM and the TGI (SW-620 colon) was 28.9 µM and 42.6 µM. For the same compound, the GI50 (NCI-H460 lung) was 13.9 µM, the TGI (NCI-H460 lung) was 26 µM and > 82.3 µM and the GI50 (HOP-92 NSCLC) was 18.4 µM. The TGI (HOP-92 NSCLC) was 57.9 µM and > 95.9 µM, the TGI (KM20L2 colon) was over 100 µM and the TGI (MDA-MB-231 breast) was 40.6 µM and 34.1 µM. The GI50 (MDA-N) was 12.9 µM, the TGI (MDA-N) was 25.7 µM and 31.7 µM and the GI50 (EKVX NSCLC) was over 75 µM. For the same compound, the TGI (EKVX NSCLC) was > 75 µM and 44.2 µM.
